From PubChem BioAssay (NCI) come the findings set out here.

Test systems include NCI-H460 lung; M14 melanoma; RPMI-8226 leukemia; PC-3 prostate; SR leukemia; CCRF-CEM leukemia; SK-MEL-2 melanoma; T-47D breast; HCT-116 colon; SK-OV-3 ovarian; MCF7 breast; RXF 393 renal; HOP-62 NSCLC; SW-620 colon; A549 NSCLC; OVCAR-4 ovarian; NCI-H522 lung.
What all share (assay): growth of human tumour cells (NCI), 48 h

Structures are written as SMILES.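 1) Cells in 96-well plates. 2) Compound, 48 h, 5 concentrations. 3) Linear interpolation between surrounding doses. 4) Unreached endpoint = highest concentration. TGI marks complete inhibition of growth.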

As to `CCCC(C)NC(=O)c1ccc(N(C)Cc2cnc3nc(N)nc(N)c3n2)cc1` (centres undefined), the TGI in the test on NCI-H460 lung was > 100 µM; in the test with M14 melanoma it was 31.1 µM; in the test with RPMI-8226 leukemia, > 100 µM; in the test with PC-3 prostate it was > 100 µM; in the test with SR leukemia it was > 100 µM; in the test with CCRF-CEM leukemia, > 100 µM. Also, the TGI in the test on SK-MEL-2 melanoma is 49 µM; with T-47D breast, 53.9 µM; with HCT-116 colon it was > 100 µM; in the test with SK-OV-3 ovarian, > 100 µM; in the test on MCF7 breast, 78 µM; in the test on RXF 393 renal, 84.5 µM. The TGI was 89.4 µM with HOP-62 NSCLC and > 100 µM in the test with SW-620 colon.

Take `COC(=O)n1c(C)c(C=O)c2ccc(OC)cc21`: the TGI in the test on NCI-H460 lung, in the test on M14 melanoma, with PC-3 prostate, in the test with A549 NSCLC, with SR leukemia and in the test with CCRF-CEM leukemia was > 100 µM in each case. Further, the TGI in the test with SK-MEL-2 melanoma was > 100 µM; in the test on T-47D breast, > 100 µM; in the test with HCT-116 colon it was > 100 µM; in the test with SK-OV-3 ovarian, > 100 µM; with MCF7 breast, 88.2 µM; in the test with RXF 393 renal it was > 100 µM. Further, the TGI with HOP-62 NSCLC is 60.8 µM; in the test on OVCAR-4 ovarian, > 100 µM; in the test on NCI-H522 lung, > 100 µM.

Regarding `COC(=O)c1nn2ccc3ccccc3c2c1C(=O)OC`, the TGI in the test on NCI-H460 lung, with M14 melanoma, with PC-3 prostate, with A549 NSCLC, in the test on SR leukemia and in the test with SK-MEL-2 melanoma was > 100 µM each time. The TGI in the test with T-47D breast, in the test on HCT-116 colon, in the test with SK-OV-3 ovarian, in the test with MCF7 breast, in the test with RXF 393 renal and with HOP-62 NSCLC was > 100 µM each time. Besides, the TGI with OVCAR-4 ovarian, with NCI-H522 lung and in the test on SW-620 colon was > 100 µM each time.

In the case of `CSc1nn(C)cc2nc(C)nc1-2`, the TGI in the test with NCI-H460 lung, in the test with M14 melanoma, with RPMI-8226 leukemia, in the test with PC-3 prostate, in the test on A549 NSCLC and in the test with SR leukemia was > 100 µM throughout. Besides, the TGI in the test with CCRF-CEM leukemia, in the test on SK-MEL-2 melanoma, in the test on T-47D breast, with HCT-116 colon, with MCF7 breast and with RXF 393 renal was > 100 µM each time. Further, the TGI in the test on HOP-62 NSCLC and with SW-620 colon was > 100 µM in each case.

Consider `Cc1cccc(/C=N\NC(=S)N2CCCCC2)n1`, for which the TGI with NCI-H460 lung is 0.788 µM; in the test with M14 melanoma, 0.406 µM; in the test with RPMI-8226 leukemia, 0.502 µM; in the test with PC-3 prostate, > 100 µM; in the test on A549 NSCLC, > 100 µM; in the test with SR leukemia, 0.123 µM. Further, the TGI is 0.225 µM with CCRF-CEM leukemia; > 100 µM in the test with SK-MEL-2 melanoma; > 100 µM with T-47D breast; 0.125 µM in the test with HCT-116 colon; > 100 µM with SK-OV-3 ovarian; 0.593 µM in the test with RXF 393 renal. For the same molecule, the TGI in the test on HOP-62 NSCLC is 0.525 µM; in the test on NCI-H522 lung it was > 100 µM; with SW-620 colon it was > 100 µM.

Consider `c1ccc(-c2c3c(nc4c2CC[C@H]4NC2=NCCN2)[C@@H](NC2=NCCN2)CC3)cc1`, for which the TGI in the test on NCI-H460 lung, with M14 melanoma, in the test with PC-3 prostate, in the test with A549 NSCLC, in the test with SR leukemia and with CCRF-CEM leukemia was > 100 µM in each case. The TGI in the test with SK-MEL-2 melanoma, with T-47D breast, in the test on HCT-116 colon, with SK-OV-3 ovarian, in the test on MCF7 breast and in the test with RXF 393 renal was > 100 µM in each case. Also, the TGI in the test on HOP-62 NSCLC, with OVCAR-4 ovarian, with NCI-H522 lung and with SW-620 colon was > 100 µM throughout.

For `CCCCOCOc1ccccc1P1(=O)COc2ccccc2OC1`, the TGI in the test with NCI-H460 lung, with M14 melanoma, with RPMI-8226 leukemia, in the test with PC-3 prostate, in the test with A549 NSCLC and in the test on SR leukemia was > 100 µM each time. Moreover, the TGI with CCRF-CEM leukemia, with SK-MEL-2 melanoma, in the test on T-47D breast, with HCT-116 colon, in the test with SK-OV-3 ovarian and in the test on MCF7 breast was > 100 µM each time. Further, the TGI in the test with RXF 393 renal, in the test on HOP-62 NSCLC, in the test with OVCAR-4 ovarian and with SW-620 colon was > 100 µM throughout.

On to `Oc1cnc2c(O)cccc2c1`, for which the TGI in the test with NCI-H460 lung, in the test with M14 melanoma, with RPMI-8226 leukemia, in the test with PC-3 prostate, in the test on A549 NSCLC and in the test on SR leukemia was > 100 µM each time. Also, the TGI in the test on SK-MEL-2 melanoma was > 100 µM; in the test on T-47D breast, 91.6 µM; with HCT-116 colon it was > 100 µM; with SK-OV-3 ovarian it was > 100 µM; in the test on MCF7 breast, > 100 µM; in the test on HOP-62 NSCLC it was > 100 µM. Also, the TGI in the test with NCI-H522 lung and with SW-620 colon was > 100 µM throughout.

For the molecule `CCOC(=O)N(C)C(=C(F)F)C(F)(F)F`, the TGI in the test on NCI-H460 lung was > 100 µM; in the test with M14 melanoma, 46.5 µM; with RPMI-8226 leukemia it was 49 µM; in the test with PC-3 prostate, > 100 µM; with A549 NSCLC it was > 100 µM; in the test with SR leukemia it was 20.9 µM. In addition, the TGI with CCRF-CEM leukemia is 75.8 µM; with SK-MEL-2 melanoma, 44.5 µM; with T-47D breast, 92.1 µM; in the test with HCT-116 colon, 55.2 µM; in the test on SK-OV-3 ovarian, > 100 µM; in the test with MCF7 breast, > 100 µM. In addition, the TGI with HOP-62 NSCLC is 68.9 µM; with OVCAR-4 ovarian, 90.8 µM; with SW-620 colon it was 67.9 µM.
